According to patent publication US20230241149A1, “TRANSTHYRETIN TETRAMER STABILIZING AGENT, AND PREVENTING AGENT OR PROGRESSION SUPPRESSING AGENT FOR TRANSTHYRETIN AMYLOIDOSIS” (KANEKA CORPORATION, priority 2020, published 2023):

Experiments:
transthyretin tetramer [1] = biological target: T1, transthyretin tetramer (Homo sapiens, UniProt P02766); settings: two molecules of glabridin per tetramer; cited from earlier work
transthyretin tetramer [2] = biological target: T1, transthyretin tetramer; experiment: Stabilization of transthyretin tetramer in serum ex vivo (Test Example 1; urea denaturation, electrophoresis and Western blotting); format: biochemical; design: from tissue; host or cells: human serum (blood of three middle-aged or older persons)
Experimental: The white circles represent the ratios in the serums added with the glabridin. The black circles represent the ratios in the serums added with the medium-chain fatty acid triglyceride solution containing a hydrophobic licorice extract.
Serums were obtained from blood taken from three middle-aged or older persons. The medium-chain fatty acid triglyceride solution containing a hydrophobic licorice extract and the glabridin that were obtained in Example 2 were added to each serum (added in such a manner that the amount of the glabridin was 0, 10, and 50 μM respectively). The resulting mixtures were incubated at 25° C. for 30 minutes, and then denatured with urea. Using these samples, the transthyretins (the tetramers and the monomers) in the blood were quantitated by electrophoresis and Western blotting. The stabilization effect was investigated using the ratio of the monomers to the tetramers (monomer/tetramer).

ratio of the monomers to the tetramers (monomer/tetramer) (transthyretin tetramer [2]; serum from three middle-aged or older persons, glabridin added at concentrations up to 50 μM, 25° C. 30 minutes, then denatured with urea): did not change | stabilization effect of the transthyretin (decreasing the ratio of the monomers and increasing the tetramers) (transthyretin tetramer [2]; serum, added so that the amount of glabridin was 0, 10, 50 μM): not observed
SMILES: CC1(C)C=Cc2c(ccc3c2OC[C@@H](c2ccc(O)cc2O)C3)O1 [glabridin]
effect on transthyretin tetramer and formation of amyloid fibrils (transthyretin tetramer [1]): binding to and stabilizing a transthyretin tetramer
